# Source: patent US20260098017A1, “NOVEL AROMATIC RING DERIVATIVE CONTAINING AMIDE SUBSTITUTION AND USE THEREOF” (TIANJIN PHARMACEUTICAL BIOTECHNOLOGY CO., LTD., priority 2022, published 2026)
# pIC50: −log10 of the molar value. Marks after values point to notes of the source that are not given here.
# Key:
# hERG channel = target: T1, hERG channel (Homo sapiens, UniProt Q12809); assay: hERG potassium channel inhibition assay (manual patch clamp); format: cell-based; conditions: HEK-293 cell line stably expressing hERG channel, at the tested concentrations
# T1 construct: expressed in transfected cells; host or cells: HEK-293
# Method: Instrumentation: HEKA EPC 10 patch clamp amplifier.
# Method: in this experiment, the blocking effect of the compounds on the current of the HEK-293 cell line stably expressing hERG channel was measured using the manual patch clamp technique, and the risk of the compounds on the inhibition of cardiac hERG potassium channel was assessed by fitting the concentration effect relationship.
# Procedure: in the patch clamp operation, firstly, a capillary glass tube was pulled into a recording electrode using a microelectrode puller, then an electrode filled with intracellular solution was mounted into a microelectrode holder. A microelectrode manipulator was operated under an inverted microscope to immerse the electrode into an extracellular solution and the electrode resistance (Rpip) was recorded. Then, the electrode was slowly brought into contact with the cell surface, and a negative pressure was applied for suction to form a GΩ seal. At this point, a fast capacitance compensation was performed, and a negative pressure was continuously applied to suck and break the cell membrane to form a whole cell recording mode. Finally, a slow capacitance compensation was performed and experimental parameters including series resistance (Rs) and the like were recorded. No leakage compensation was performed. When the hERG current recorded by the whole cell was stable, the administration of drugs commenced, and each drug concentration acted for about 5 min (or until the current stabilization) before detecting the next concentration. A cover glass covered with cells was placed in a recording bath under an inverted microscope, the blank control extracellular solution and the working solution of the compounds to be tested sequentially flowed through the recording bath from low concentration to high concentration by using gravity perfusion to act on the cells, and solution exchange was performed using a peristaltic pump during recording. The current measured by each cell in the extracellular solution without the compound served as its own control group. Each concentration was independently assessed twice. All electrophysiological tests were performed at room temperature.
# Data Analysis: firstly, the tail current (Peak tail currentcompound) after the action of each drug concentration and the blank control tail current (Peak tail currentcontrol) were normalized, then the inhibition rate
# corresponding to each drug concentration was calculated, and the mean (Mean), standard deviation (SD) and standard error (SE) of the inhibition rate corresponding to each concentration were calculated, with data expressed as Mean±SE. The calculation of IC50 value and the fitting of dose-response curve for the compound were performed using GraphPad Prism software.
# JAK2 JH1 kinase = JAK2 JH1 kinase (Homo sapiens, UniProt O60674); assay: JAK2 JH1 enzyme assay in vitro (TR-FRET); format: biochemical; conditions: read-out: JAK 2 JH1 IC50
# [1] = tested on: imiquimod-induced mouse psoriasis-like model; assay: Imiquimod-induced mouse psoriasis-like model (PASI score); format: in vivo
# Description: The efficacy of the compounds according to the present invention in an imiquimod-induced mouse psoriasis-like model could be assessed using the following method:
# Sample preparation: with reference to the preparation of commercially available Benvitimod cream. The compound (the compound of Example 3), the oil phase (hexadecanol, vaseline, liquid paraffin, and glyceryl mono- and distearate), the aqueous phase (propylene glycol, Tween 80, and water), and the appropriate additive (ethylparaben) were mixed, and subjected to vacuum emulsification to prepare a 1% cream sample.
# A test site on the back of the animal was shaved to expose an area measuring of 2×3 cm^2. Imiquimod ointment was continuously applied to the back skin of the mice for 6 days to establish a mouse psoriasis model. From day 1 to day 6, various groups of animals were administered respectively according to the experimental protocol.
# At day 7, the severity of skin inflammation was assessed and scored using a 5-point scale (0-4) (PASI score):
# Skin thickness: 0: the skin was smooth without wrinkles; 1: the skin at the edge of the drug application area had slight wrinkles; 2: the skin in the drug application area all had slight wrinkles; 3: the degree of wrinkles in the drug application area was further deepened; and 4: on the basis of the score of 3, the mouse had the conditions of weight loss or poor state and the like. […]
# [2] = tested on: mouse asthma model induced by OVA; assay: Mouse asthma model induced by OVA: airway hyperresponsiveness (Penh); format: in vivo; conditions: for Enhanced pause (Penh) value: 2 mg/mL, 50 μL endotracheally, once daily for 3 days
# Method: The efficacy of the compounds according to the present invention in a mouse asthma model induced by OVA could be assessed using the following method:
# Test sample: the compound of Example 3 was weighed accurately, and dissolved in DMSO to prepare a solution at a concentration of 2 mg/mL.
# 30 female BALB/c mice were adaptively fed. After one week, 10 mice were randomly taken out and fed as a blank control group, and 20 mice were selected to establish the asthma model. The model mice were intraperitoneally injected with 0.2 mL of sensitizing solution for sensitization respectively on 0, 7 and 14 days. The sensitization solution contained 50 μg of OVA and 2 mg of Al(OH)3. The blank control group received an equivalent volume of physiological saline.
# From day 21 to day 23 after sensitization, the mice in the model group and the administration group were subjected to nebulization stimulation with 5% OVA for 30 min, and the mice in the blank control group received nebulization with physiological saline for the same duration.
# 30 min before daily stimulation of the mice, 50 μl of physiological saline was administered endotracheally to mice in the blank control and model groups, and 50 μl of the corresponding drug was administered endotracheally to mice in the Example 3 compound group, once daily for 3 consecutive days.
# Airway hyperresponsiveness was measured in each group of mice after the last stimulation. The mice were placed in a whole-body plethysmograph. After recording the baseline values of enhanced pause (Penh), the mice were stimulated by nebulized methacholine, wherein the concentrations of the methacholine were 0, 6.25 and 12.5 mg/mL from low to high, the nebulization volume was 100 μL per dose for 60 s.
# Statistical analysis was conducted using SPSS software, Measurement data were expressed as mean±standard deviation. One Way ANOVA was used for inter-group comparisons, LSD test was used for those with homogeneous variance, and Dunnett-t test was used for those with heterogeneous variance. Differences were statistically significant with P<0.05.
# T1 sequence (Q12809 whole entry): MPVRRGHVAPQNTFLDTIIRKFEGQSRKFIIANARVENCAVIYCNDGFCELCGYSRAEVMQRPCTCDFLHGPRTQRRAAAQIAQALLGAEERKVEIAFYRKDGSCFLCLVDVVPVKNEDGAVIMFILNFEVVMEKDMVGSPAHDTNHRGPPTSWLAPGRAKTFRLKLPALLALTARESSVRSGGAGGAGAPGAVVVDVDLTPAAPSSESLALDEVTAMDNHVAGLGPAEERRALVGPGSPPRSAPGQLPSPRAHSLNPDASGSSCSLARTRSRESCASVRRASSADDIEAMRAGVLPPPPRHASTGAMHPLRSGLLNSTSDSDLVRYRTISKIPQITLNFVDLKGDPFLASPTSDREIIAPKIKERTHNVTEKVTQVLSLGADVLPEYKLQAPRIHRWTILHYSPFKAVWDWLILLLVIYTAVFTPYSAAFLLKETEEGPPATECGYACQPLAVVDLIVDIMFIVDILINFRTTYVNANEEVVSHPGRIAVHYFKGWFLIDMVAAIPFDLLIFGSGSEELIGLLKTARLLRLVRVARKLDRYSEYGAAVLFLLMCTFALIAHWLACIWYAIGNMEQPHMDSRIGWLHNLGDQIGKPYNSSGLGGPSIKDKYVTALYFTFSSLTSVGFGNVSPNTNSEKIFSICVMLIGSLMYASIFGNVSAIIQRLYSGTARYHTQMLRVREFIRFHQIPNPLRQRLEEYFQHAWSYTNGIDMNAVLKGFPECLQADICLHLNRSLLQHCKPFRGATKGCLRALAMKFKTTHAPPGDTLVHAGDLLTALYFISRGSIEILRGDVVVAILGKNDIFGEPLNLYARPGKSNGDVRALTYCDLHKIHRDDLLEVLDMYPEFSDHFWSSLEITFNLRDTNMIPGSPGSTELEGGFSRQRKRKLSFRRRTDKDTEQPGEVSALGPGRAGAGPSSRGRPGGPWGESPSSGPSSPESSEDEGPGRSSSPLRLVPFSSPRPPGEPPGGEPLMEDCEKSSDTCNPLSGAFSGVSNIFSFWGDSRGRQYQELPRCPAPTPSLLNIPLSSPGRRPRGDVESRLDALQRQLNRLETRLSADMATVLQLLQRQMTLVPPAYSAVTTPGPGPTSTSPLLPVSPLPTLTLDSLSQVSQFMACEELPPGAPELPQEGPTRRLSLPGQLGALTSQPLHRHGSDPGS
# Sequence of JAK2 JH1 kinase (O60674 849-1124 limits assumed): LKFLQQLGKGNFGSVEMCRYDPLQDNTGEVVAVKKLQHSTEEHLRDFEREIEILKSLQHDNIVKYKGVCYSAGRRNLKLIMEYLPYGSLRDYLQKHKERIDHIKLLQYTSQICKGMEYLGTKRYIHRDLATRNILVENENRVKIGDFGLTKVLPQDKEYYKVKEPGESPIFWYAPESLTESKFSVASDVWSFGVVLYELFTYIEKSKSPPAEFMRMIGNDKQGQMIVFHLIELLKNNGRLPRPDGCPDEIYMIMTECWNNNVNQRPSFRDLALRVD
structure (smiles),measurement,setting,value
[2H]C([2H])([2H])NC(=O)c1nnc(NC(=O)C2CC2)cc1Nc1cccc(C(=O)Nc2cccc(C)c2)c1OC [Example 3],hERG inhibition,hERG channel,no significant inhibition
same,pIC50,JAK2 JH1 kinase,< 5.00
same,Percentage reduction in PASI score %,"[1]; day 7, 1% cream, 100 mg, topical, qd, day 1 to 6",40.7*** %
same,Improvement of psoriasis symptoms,"[1]; topical cream, compared with the model group",effectively improved psoriasis symptoms
same,Effect on enhanced pause (Penh) values compared to the model group,"[2]; administration before stimulation, P<0.05",significantly reduce
same,Enhanced pause (Penh) value,[2]; methacholine 0 mg/mL,0.86 ± 0.31
same,Enhanced pause (Penh) value,[2]; methacholine 6.25 mg/mL,1.79 ± 0.45
same,Enhanced pause (Penh) value,[2]; methacholine 12.5 mg/mL,2.94 ± 0.66
